Results published in patent publication US4388311A, “Method for the induction of menses” (G. D. Searle & Co., priority 1982, dated 1983).
Where “and” joins values, the source holds several entries; their conditions need not be identical. Equal entries are not always repeated.

Assays:
[1] = test system: pregnancy in rats; assay: Pregnancy termination in rats, compounds administered intragastrically on day 10 of pregnancy (Table 3); type: in vivo, rat; details: autopsy day 14
Method: (§1) The following tables list the results for a compound of Formula IV as compared with a control of previously known 2α-cyano-17β-hydroxy-3-oxo-4,4,17α-trimethylandrost-5-end(Cyanoketone) for termination of pregnancy.
^1 Compounds were administered intragastrically once daily on days 10
of pregnancy in a vehicle consisting of PEG400, propylene glycol and 100
percent ethanol (50:40:10, v:v:v). Serum for progesterone determination
was drawn on day 11 of pregnancy, 24 hours after the initial injection of
(§2) compound. The animals were autopsied on day 14 of pregnancy.

[2] = test system: pregnancy in rats; assay: Termination of pregnancy in rats, compounds administered subcutaneously (Table 2); type: in vivo, rat
Method: as §1
^1 Compounds given subcutaneously in corn oil vehicle once daily on
days 10 through 13 of pregnancy. Serum for progesterone determination was
drawn on day 11 of pregnancy, 24 hours after the initial injection of
as §2
^2 Serum progesterone values determined by RIA at Interlab Associates

[3] = 4 mg/kg intragastrically once on day 10 of pregnancy
[4] = 8 mg/kg intragastrically once on day 10 of pregnancy
[5] = 16 mg/kg intragastrically once on day 10 of pregnancy
[6] = 32 mg/kg intragastrically once on day 10 of pregnancy
[7] = 1 mg/kg/day subcutaneously days 10-13 of pregnancy, serum day 11, 24 hours after initial injection
[8] = 1 mg/kg/day subcutaneously in corn oil once daily days 10-13 of pregnancy, autopsy day 14
[9] = 2 mg/kg/day subcutaneously days 10-13 of pregnancy, serum day 11, 24 hours after initial injection
[10] = 2 mg/kg/day subcutaneously in corn oil once daily days 10-13 of pregnancy, autopsy day 14
[11] = 4 mg/kg/day subcutaneously days 10-13 of pregnancy, serum day 11, 24 hours after initial injection
[12] = 4 mg/kg/day subcutaneously in corn oil once daily days 10-13 of pregnancy, autopsy day 14
[13] = 8 mg/kg/day subcutaneously days 10-13 of pregnancy, serum day 11, 24 hours after initial injection
[14] = 8 mg/kg/day subcutaneously in corn oil once daily days 10-13 of pregnancy, autopsy day 14
[15] = 16 mg/kg/day subcutaneously days 10-13 of pregnancy, serum day 11, 24 hours after initial injection
[16] = 16 mg/kg/day subcutaneously in corn oil once daily days 10-13 of pregnancy, autopsy day 14, 16 mg/kg/day
[17] = 32 mg/kg/day subcutaneously days 10-13 of pregnancy, serum day 11, 24 hours after initial injection
[18] = 32 mg/kg/day subcutaneously in corn oil once daily days 10-13 of pregnancy, autopsy day 14

CC1(C)C(=O)[C@H](C#N)C[C@@]2(C)C1=CC[C@@H]1[C@@H]2CC[C@@]2(C)[C@H]1CC[C@]2(C)O [Cyanoketone, 2α-cyano-17β-hydroxy-3-oxo-4,4,17α-trimethylandrost-5-end]
Number of Rats Pregnant/Number of Rats Treated (Percent) ([1]; 2 mg/kg intragastrically once on day 10 of pregnancy): 100%
Adrenal Wt. mg + SE [1, 3]: 75.9 + 6.1 mg
Fetal Viability: Normal Fetuses/Implantation Sites [1, 3]: 46/84
Fetal Viability: Normal Fetuses/Implantation Sites (Percent) [1, 3]: 55%
Number of Rats Pregnant/Number of Rats Treated [1, 3]: 4/7
Number of Rats Pregnant/Number of Rats Treated (Percent) [1, 3]: 57%
Fetal Viability: Normal Fetuses/Implantation Sites [1, 4]: 11/112
Fetal Viability: Normal Fetuses/Implantation Sites (Percent) [1, 4]: 10%
Number of Rats Pregnant/Number of Rats Treated [1, 4]: 1/9
Number of Rats Pregnant/Number of Rats Treated (Percent) [1, 4]: 11%
Adrenal Wt. mg + SE [1, 5]: 61.3 + 3.0 mg
Fetal Viability: Normal Fetuses/Implantation Sites [1, 5]: 8/108
Fetal Viability: Normal Fetuses/Implantation Sites (Percent) [1, 5]: 7%
Number of Rats Pregnant/Number of Rats Treated [1, 5]: 1/9
Number of Rats Pregnant/Number of Rats Treated (Percent) [1, 5]: 11%
Adrenal Wt. mg + SE [1, 6]: 60.3 + 1.6 mg
Fetal Viability: Normal Fetuses/Implantation Sites [1, 6]: 10/106
Fetal Viability: Normal Fetuses/Implantation Sites (Percent) [1, 6]: 9%
Number of Rats Pregnant/Number of Rats Treated [1, 6]: 1/10
Number of Rats Pregnant/Number of Rats Treated (Percent) [1, 6]: 10%
Serum Progesterone (Percent Control) [2, 7]: 124 Percent Control
Serum Progesterone ng/ml + S.E. [2, 7]: 54.1 + 2.6 ng/ml
Adrenal Wt. mg + SE [2, 8]: 83.4 + 4.0 mg
Fetal Viability: Normal Fetuses/Implantation Sites [2, 8]: 80/82
Fetal Viability: Normal Fetuses/Implantation Sites (Percent) [2, 8]: 98%
Number of Rats Pregnant/Number of Rats Treated [2, 8]: 7/7
Number of Rats Pregnant/Number of Rats Treated (Percent) [2, 8]: 100%
Serum Progesterone (Percent Control) [2, 9]: 94 Percent Control
Serum Progesterone ng/ml + S.E. [2, 9]: 40.8 + 2.2 ng/ml
Adrenal Wt. mg + SE [2, 10]: 91.6 + 4.6 mg
Fetal Viability: Normal Fetuses/Implantation Sites [2, 10]: 94/103
Fetal Viability: Normal Fetuses/Implantation Sites (Percent) [2, 10]: 91%
Number of Rats Pregnant/Number of Rats Treated [2, 10]: 8/8
Number of Rats Pregnant/Number of Rats Treated (Percent) [2, 10]: 100%
Serum Progesterone (Percent Control) [2, 11]: 92 Percent Control
Serum Progesterone ng/ml + S.E. [2, 11]: 40.0 + 3.5 ng/ml
Adrenal Wt. mg + SE [2, 12]: 93.1 + 4.0 mg
Fetal Viability: Normal Fetuses/Implantation Sites [2, 12]: 27/87
Fetal Viability: Normal Fetuses/Implantation Sites (Percent) [2, 12]: 32%
Number of Rats Pregnant/Number of Rats Treated [2, 12]: 3/6
Number of Rats Pregnant/Number of Rats Treated (Percent) [2, 12]: 50%
Serum Progesterone (Percent Control) [2, 13]: 44 Percent Control
Serum Progesterone ng/ml + S.E. [2, 13]: 22.1 + 6.0 ng/ml
Adrenal Wt. mg + SE [2, 14]: 78.8 + 3.9 mg
Fetal Viability: Normal Fetuses/Implantation Sites [2, 14]: 36/119
Fetal Viability: Normal Fetuses/Implantation Sites (Percent) [2, 14]: 30%
Number of Rats Pregnant/Number of Rats Treated [2, 14]: 5/10
Number of Rats Pregnant/Number of Rats Treated (Percent) [2, 14]: 50%
Serum Progesterone (Percent Control) [2, 15]: 48 Percent Control
Serum Progesterone ng/ml + S.E. [2, 15]: 24.3 + 7.6 ng/ml
Serum Progesterone (Percent Control) ([2]; 16 mg/kg/day subcutaneously days 10-13 of pregnancy, serum day 11, determined by RIA at Interlab Associates (footnote 2)): 70 Percent Control
Serum Progesterone ng/ml + S.E. ([2]; 16 mg/kg/day subcutaneously days 10-13 of pregnancy, serum day 11, group whose values were determined by RIA at Interlab Associates (footnote 2)): 50.7 + 5.4 ng/ml
Adrenal Wt. mg + SE [2, 16]: 77.0 + 4.5 mg and 105.2 mg
Fetal Viability: Normal Fetuses/Implantation Sites [2, 16]: 26/103 and 11/94
Number of Rats Pregnant/Number of Rats Treated [2, 16]: 3/9 and 2/8
Number of Rats Pregnant/Number of Rats Treated (Percent) [2, 16]: 33% and 25%
Serum Progesterone (Percent Control) [2, 17]: 70 Percent Control
Serum Progesterone ng/ml + S.E. [2, 17]: 35.1 + 7.8 ng/ml
Adrenal Wt. mg + SE [2, 18]: 94.8 + 8.9 mg
Fetal Viability: Normal Fetuses/Implantation Sites [2, 18]: 15/63
Fetal Viability: Normal Fetuses/Implantation Sites (Percent) [2, 18]: 24%
Number of Rats Pregnant/Number of Rats Treated [2, 18]: 2/6
Number of Rats Pregnant/Number of Rats Treated (Percent) [2, 18]: 33%
